Test results published in ChEMBL document CHEMBL1255229, “Novel antimicrobial peptides that exhibit activity against select agents and other drug resistant bacteria” (2010).
Values after ≈ are worked out from the molar mass of the structure shown. Starred links: 1 amine or outer side, 2 acyl side, 3 side chain; linkers in the order of their positions; H or OH if unused. Non-standard residues stand in square brackets, D forms with d. Residues, ends and D or L forms follow the SMILES beside them. X1 = O=C([C@@H]1CN([*:1])C2CCCCC21)[*:2]; X2 = O=C([C@H]1CN([*:1])C2CCCCC21)[*:2]; Tic = O=C(O)[C@@H]1Cc2ccccc2CN1; Orn = NCCC[C@H](N)C(=O)O; Ahx = NCCCCCC(=O)O; GABA = NCCCC(=O)O

What was measured:
Format in all cases: functional
Yersinia pestis = assay: Antimicrobial activity against Yersinia pestis CO92 after 24 hrs; details: CO92, 24 h
Acinetobacter baumannii [1] = assay: Antimicrobial activity against Acinetobacter baumannii WRAIR after 24 hrs
Staphylococcus aureus = assay: Antimicrobial activity against methicillin-resistant Staphylococcus aureus ATCC 33591 after 24 hrs; details: ATCC 33591, 24 h
Brucella melitensis = assay: Antimicrobial activity against Brucella melitensis 16 M after 24 hrs
Bacillus anthracis = assay: Antimicrobial activity against Bacillus anthracis Ames after 24 hrs
Brucella suis = assay: Antimicrobial activity against Brucella suis ATCC 23445 after 24 hrs; details: ATCC 23445, 24 h
Burkholderia mallei = assay: Antimicrobial activity against Burkholderia mallei ATCC 23444 after 24 hrs; details: ATCC 23444, 24 h
[2] = system: Burkholderia pseudomallei; assay: Antimicrobial activity against Burkholderia pseudomallei BURK003(1026b) after 24 hrs
Brucella abortus = assay: Antimicrobial activity against Brucella abortus 2308 after 24 hrs; details: Brucella abortus, 2308, 24 h
Acinetobacter baumannii [3] = assay: Antimicrobial activity against Acinetobacter baumannii ATCC 19606 after 24 hrs; details: ATCC 19606 = CIP 70.34 = JCM 6841, 24 h
Francisella tularensis = assay: Antimicrobial activity against Francisella tularensis SCHU-S4 after 24 hrs; details: SCHU-S4, 24 h

CC(=O)NCCCC(=O)N[C@@H](Cc1ccccc1)C(=O)N1Cc2ccccc2C[C@H]1C(=O)N1C[C@@H](C(=O)NCCCC(=O)N[C@@H](CCCCN)C(=O)N2Cc3ccccc3C[C@H]2C(=O)N2C[C@@H](C(=O)NCCCC(=O)N[C@@H](Cc3ccccc3)C(=O)N3Cc4ccccc4C[C@H]3C(=O)N3C[C@@H](C(=O)NCCCC(=O)N[C@@H](CCCCN)C(=O)N4Cc5ccccc5C[C@H]4C(=O)N[C@@H](CCCCN)C(=O)N[C@@H](CCCCN)C(=O)N[C@@H](CCCCN)C(=O)N[C@@H](CCCCN)C(N)=O)C4CCCCC43)C3CCCCC32)C2CCCCC21 (stereo not given in full) (Ac-[GABA]F[Tic][X1][GABA]K[Tic][X1][GABA]F[Tic][X1][GABA]K[Tic]KKKK-NH2)
MIC (Yersinia pestis): 196 µM (≈ 500 µg/mL) | MIC (Acinetobacter baumannii [1]): 3.1 µM (≈ 7.92 µg/mL) | MIC (Staphylococcus aureus): 196 µM (≈ 500 µg/mL) | MIC (Brucella melitensis): 196 µM (≈ 500 µg/mL) | MIC (Bacillus anthracis): 12.5 µM (≈ 31.9 µg/mL) | MIC (Brucella suis): 196 µM (≈ 500 µg/mL) | MIC (Burkholderia mallei): 196 µM (≈ 500 µg/mL) | MIC [2]: 196 µM (≈ 500 µg/mL) | MIC (Brucella abortus): 196 µM (≈ 500 µg/mL) | MIC (Acinetobacter baumannii [3]): 3.1 µM (≈ 7.92 µg/mL) | MIC (Francisella tularensis): 196 µM (≈ 500 µg/mL)

CC(=O)NCC(=O)N[C@@H](Cc1ccccc1)C(=O)N1C[C@@H](C(=O)N2C[C@H](C(=O)NCC(=O)N[C@@H](CCCCN)C(=O)N3C[C@@H](C(=O)N4C[C@@H](C(=O)NCC(=O)N[C@@H](Cc5ccccc5)C(=O)N5C[C@@H](C(=O)N6C[C@@H](C(=O)NCC(=O)N[C@@H](CCCCN)C(=O)N7Cc8ccccc8C[C@H]7C(=O)N[C@@H](CCCCN)C(=O)N[C@@H](CCCCN)C(=O)N[C@@H](CCCCN)C(=O)N[C@@H](CCCCN)C(N)=O)C7CCCCC76)C6CCCCC65)C5CCCCC54)C4CCCCC43)C3CCCCC32)C2CCCCC21 (stereo not given in full) (Ac-GF[X1][X2]GK[X1][X1]GF[X1][X1]GK[Tic]KKKK-NH2)
MIC (Yersinia pestis): 207 µM (≈ 500 µg/mL) | MIC (Acinetobacter baumannii [1]): 3.2 µM (≈ 7.73 µg/mL) | MIC (Staphylococcus aureus): 207 µM (≈ 500 µg/mL) | MIC (Brucella melitensis): 207 µM (≈ 500 µg/mL) | MIC (Bacillus anthracis): 26 µM (≈ 62.8 µg/mL) | MIC (Brucella suis): 207 µM (≈ 500 µg/mL) | MIC (Burkholderia mallei): 207 µM (≈ 500 µg/mL) | MIC [2]: 207 µM (≈ 500 µg/mL) | MIC (Brucella abortus): 207 µM (≈ 500 µg/mL) | MIC (Acinetobacter baumannii [3]): 3.2 µM (≈ 7.73 µg/mL) | MIC (Francisella tularensis): 104 µM (≈ 251 µg/mL)

CC(=O)NCC(=O)N[C@@H](Cc1ccccc1)C(=O)N1Cc2ccccc2C[C@H]1C(=O)N1C[C@@H](C(=O)NCC(=O)N[C@@H](CCCN)C(=O)N2Cc3ccccc3C[C@H]2C(=O)N2C[C@@H](C(=O)NCC(=O)N[C@@H](Cc3ccccc3)C(=O)N3Cc4ccccc4C[C@H]3C(=O)N3C[C@@H](C(=O)NCC(=O)N[C@@H](CCCN)C(=O)N4Cc5ccccc5C[C@H]4C(=O)N[C@@H](CCCN)C(=O)N[C@@H](CCCN)C(=O)N[C@@H](CCCN)C(=O)N[C@@H](CCCN)C(N)=O)C4CCCCC43)C3CCCCC32)C2CCCCC21 (stereo not given in full) (Ac-GF[Tic][X1]G[Orn][Tic][X1]GF[Tic][X1]G[Orn][Tic][Orn][Orn][Orn][Orn]-NH2)
MIC (Yersinia pestis): 26.5 µM (≈ 62.5 µg/mL) | MIC (Acinetobacter baumannii [1]): 6.6 µM (≈ 15.6 µg/mL) | MIC (Staphylococcus aureus): 53 µM (≈ 125 µg/mL) | MIC (Brucella melitensis): 106 µM (≈ 250 µg/mL) | MIC (Bacillus anthracis): 0.82 µM (≈ 1.93 µg/mL) | MIC (Brucella suis): 106 µM (≈ 250 µg/mL) | MIC (Burkholderia mallei): 212 µM (≈ 500 µg/mL) | MIC [2]: 212 µM (≈ 500 µg/mL) | MIC (Brucella abortus): 106 µM (≈ 250 µg/mL) | MIC (Acinetobacter baumannii [3]): 6.6 µM (≈ 15.6 µg/mL) | MIC (Francisella tularensis): 106 µM (≈ 250 µg/mL)

CC(=O)NCC(=O)N[C@@H](Cc1ccccc1)C(=O)N1Cc2ccccc2C[C@H]1C(=O)N1C[C@@H](C(=O)NCC(=O)N[C@@H](CCCCN)C(=O)N2Cc3ccccc3C[C@H]2C(=O)N2C[C@@H](C(=O)NCC(=O)N[C@@H](Cc3ccccc3)C(=O)N3Cc4ccccc4C[C@H]3C(=O)N3C[C@@H](C(=O)NCC(=O)N[C@@H](CCCCN)C(=O)N4Cc5ccccc5C[C@H]4C(=O)NCCCCCC(=O)N[C@@H](CCCCN)C(=O)N[C@@H](CCCCN)C(=O)N[C@@H](CCCCN)C(=O)N[C@@H](CCCCN)C(N)=O)C4CCCCC43)C3CCCCC32)C2CCCCC21 (stereo not given in full) (Ac-GF[Tic][X1]GK[Tic][X1]GF[Tic][X1]GK[Tic][Ahx]KKKK-NH2)
MIC (Yersinia pestis): 48.9 µM (≈ 125 µg/mL) | MIC (Acinetobacter baumannii [1]): 6.1 µM (≈ 15.6 µg/mL) | MIC (Staphylococcus aureus): 196 µM (≈ 501 µg/mL) | MIC (Brucella melitensis): 196 µM (≈ 501 µg/mL) | MIC (Bacillus anthracis): 48.9 µM (≈ 125 µg/mL) | MIC (Brucella suis): 196 µM (≈ 501 µg/mL) | MIC (Burkholderia mallei): 196 µM (≈ 501 µg/mL) | MIC [2]: 196 µM (≈ 501 µg/mL) | MIC (Brucella abortus): 196 µM (≈ 501 µg/mL) | MIC (Acinetobacter baumannii [3]): 3 µM (≈ 7.66 µg/mL) | MIC (Francisella tularensis): 196 µM (≈ 501 µg/mL)

CC1(C)S[C@@H]2[C@H](NC(=O)[C@H](N)c3ccccc3)C(=O)N2[C@H]1C(=O)O [AMPICILLIN]
MIC (Yersinia pestis): 0.8 µM (≈ 0.28 µg/mL) | MIC (Acinetobacter baumannii [1]): 1430 µM (≈ 500 µg/mL) | MIC (Staphylococcus aureus): 93 µM (≈ 32.5 µg/mL) | MIC (Brucella melitensis): 11 µM (≈ 3.84 µg/mL) | MIC (Bacillus anthracis): 0.4 µM (≈ 0.14 µg/mL) | MIC (Brucella suis): 0.8 µM (≈ 0.28 µg/mL) | MIC (Burkholderia mallei): 0.09 µM (≈ 0.0314 µg/mL) | MIC [2]: 0.09 µM (≈ 0.0314 µg/mL) | MIC (Brucella abortus): 11 µM (≈ 3.84 µg/mL) | MIC (Acinetobacter baumannii [3]): 179 µM (≈ 62.5 µg/mL) | MIC (Francisella tularensis): 0.09 µM (≈ 0.0314 µg/mL)
